pIC50: −log10 of the molar value. Read-outs that look alike come from different tables or passages of the source.
How the values were obtained:
[1] = target: T1, N-type Ca2+ channels in IMR-32 cells (Homo sapiens, UniProt Q00975); experiment: Inhibition of N-type calcium flux in IMR-32 cells (Indo-1 fluorescence, nitrendipine present); format: cell-based; settings: for inhibition at 1 µM / inhibition at 10 µM: IMR-32; for pIC50: IMR-32 cells, 5 μM nitrendipine, K+ depolarization
T1 construct: host or cells: IMR-32 cells, differentiated with dibutyryl cAMP and bromodeoxyuridine
T1 sequence (Q00975 whole entry): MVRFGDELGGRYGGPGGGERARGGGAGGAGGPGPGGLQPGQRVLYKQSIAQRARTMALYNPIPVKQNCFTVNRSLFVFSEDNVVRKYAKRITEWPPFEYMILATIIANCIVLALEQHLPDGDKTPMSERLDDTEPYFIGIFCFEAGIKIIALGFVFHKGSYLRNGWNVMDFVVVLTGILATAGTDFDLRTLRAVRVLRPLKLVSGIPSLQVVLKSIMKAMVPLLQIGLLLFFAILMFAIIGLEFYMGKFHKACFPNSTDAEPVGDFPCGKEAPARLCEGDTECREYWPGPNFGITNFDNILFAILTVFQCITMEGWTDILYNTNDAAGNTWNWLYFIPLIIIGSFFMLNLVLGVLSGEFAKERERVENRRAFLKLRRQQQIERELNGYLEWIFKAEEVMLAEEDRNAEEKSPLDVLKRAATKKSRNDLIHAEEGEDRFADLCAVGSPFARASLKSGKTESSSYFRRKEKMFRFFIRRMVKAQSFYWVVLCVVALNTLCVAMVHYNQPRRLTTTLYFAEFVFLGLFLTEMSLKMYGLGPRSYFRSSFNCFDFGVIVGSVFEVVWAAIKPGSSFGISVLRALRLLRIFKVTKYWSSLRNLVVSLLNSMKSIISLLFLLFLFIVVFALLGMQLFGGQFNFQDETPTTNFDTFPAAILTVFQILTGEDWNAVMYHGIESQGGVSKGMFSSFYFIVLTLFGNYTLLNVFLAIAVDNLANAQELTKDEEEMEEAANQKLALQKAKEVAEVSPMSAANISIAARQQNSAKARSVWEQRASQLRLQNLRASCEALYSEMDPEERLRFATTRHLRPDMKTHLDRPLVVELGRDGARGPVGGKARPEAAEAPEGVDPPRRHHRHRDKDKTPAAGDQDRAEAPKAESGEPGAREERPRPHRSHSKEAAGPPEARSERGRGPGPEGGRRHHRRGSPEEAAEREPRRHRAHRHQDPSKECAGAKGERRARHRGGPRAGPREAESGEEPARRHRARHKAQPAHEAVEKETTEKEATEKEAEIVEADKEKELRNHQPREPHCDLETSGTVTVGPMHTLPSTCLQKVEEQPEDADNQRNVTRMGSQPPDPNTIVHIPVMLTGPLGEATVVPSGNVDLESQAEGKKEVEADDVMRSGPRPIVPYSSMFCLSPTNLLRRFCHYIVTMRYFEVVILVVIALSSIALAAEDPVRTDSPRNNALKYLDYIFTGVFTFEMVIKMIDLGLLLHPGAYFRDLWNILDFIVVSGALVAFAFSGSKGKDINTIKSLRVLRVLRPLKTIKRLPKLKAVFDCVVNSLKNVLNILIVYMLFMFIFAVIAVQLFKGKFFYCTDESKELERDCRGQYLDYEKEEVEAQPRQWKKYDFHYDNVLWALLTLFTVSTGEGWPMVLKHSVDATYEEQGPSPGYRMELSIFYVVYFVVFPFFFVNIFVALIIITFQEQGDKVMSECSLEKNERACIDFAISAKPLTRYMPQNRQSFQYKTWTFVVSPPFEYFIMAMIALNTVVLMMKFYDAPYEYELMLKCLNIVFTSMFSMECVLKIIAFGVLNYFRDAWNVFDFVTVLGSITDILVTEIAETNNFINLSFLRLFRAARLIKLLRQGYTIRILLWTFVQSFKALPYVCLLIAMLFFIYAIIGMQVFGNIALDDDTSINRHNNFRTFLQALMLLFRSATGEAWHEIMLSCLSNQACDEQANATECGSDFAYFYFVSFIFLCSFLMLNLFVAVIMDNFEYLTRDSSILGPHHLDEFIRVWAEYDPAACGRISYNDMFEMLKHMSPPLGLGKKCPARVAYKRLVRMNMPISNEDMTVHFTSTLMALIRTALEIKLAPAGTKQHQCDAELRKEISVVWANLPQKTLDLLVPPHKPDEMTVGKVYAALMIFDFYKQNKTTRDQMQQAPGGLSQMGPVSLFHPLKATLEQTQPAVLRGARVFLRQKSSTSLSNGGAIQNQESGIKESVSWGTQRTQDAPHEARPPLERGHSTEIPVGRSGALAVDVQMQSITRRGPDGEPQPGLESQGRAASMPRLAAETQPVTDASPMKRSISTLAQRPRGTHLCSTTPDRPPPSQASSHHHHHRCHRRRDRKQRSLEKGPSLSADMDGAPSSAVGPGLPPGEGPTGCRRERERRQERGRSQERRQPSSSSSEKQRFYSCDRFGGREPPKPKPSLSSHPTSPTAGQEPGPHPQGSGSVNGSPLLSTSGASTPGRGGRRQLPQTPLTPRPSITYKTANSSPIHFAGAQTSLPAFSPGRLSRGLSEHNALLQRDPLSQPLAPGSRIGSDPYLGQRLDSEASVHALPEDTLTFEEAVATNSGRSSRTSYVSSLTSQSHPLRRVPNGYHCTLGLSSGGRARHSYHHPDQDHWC
T1 sequence (P54289 25-956 partner limits assumed): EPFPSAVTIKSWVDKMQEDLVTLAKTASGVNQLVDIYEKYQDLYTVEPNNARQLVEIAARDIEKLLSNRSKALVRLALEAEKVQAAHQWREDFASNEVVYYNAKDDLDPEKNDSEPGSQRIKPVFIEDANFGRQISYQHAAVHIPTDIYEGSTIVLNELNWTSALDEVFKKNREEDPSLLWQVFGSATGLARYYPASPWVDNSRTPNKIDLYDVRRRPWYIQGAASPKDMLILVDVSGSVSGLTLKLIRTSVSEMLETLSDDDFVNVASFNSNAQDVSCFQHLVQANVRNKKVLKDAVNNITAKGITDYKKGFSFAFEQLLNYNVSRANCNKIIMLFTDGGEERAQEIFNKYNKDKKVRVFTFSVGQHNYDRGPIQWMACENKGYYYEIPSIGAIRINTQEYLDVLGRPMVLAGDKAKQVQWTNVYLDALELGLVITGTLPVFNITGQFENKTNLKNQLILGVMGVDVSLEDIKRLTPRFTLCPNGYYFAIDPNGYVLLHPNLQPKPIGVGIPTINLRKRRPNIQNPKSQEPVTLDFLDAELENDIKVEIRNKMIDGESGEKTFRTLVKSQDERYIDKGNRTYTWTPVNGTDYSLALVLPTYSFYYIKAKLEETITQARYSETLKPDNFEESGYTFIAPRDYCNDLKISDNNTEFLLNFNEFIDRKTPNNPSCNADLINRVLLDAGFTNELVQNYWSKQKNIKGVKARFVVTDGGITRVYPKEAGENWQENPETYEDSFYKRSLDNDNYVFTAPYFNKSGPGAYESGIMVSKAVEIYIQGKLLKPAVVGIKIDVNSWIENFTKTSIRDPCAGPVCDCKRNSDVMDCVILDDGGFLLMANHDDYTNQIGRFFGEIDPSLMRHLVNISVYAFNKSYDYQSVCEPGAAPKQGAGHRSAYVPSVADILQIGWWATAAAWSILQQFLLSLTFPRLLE
T1 sequence (P54289 957-1103 partner limits assumed): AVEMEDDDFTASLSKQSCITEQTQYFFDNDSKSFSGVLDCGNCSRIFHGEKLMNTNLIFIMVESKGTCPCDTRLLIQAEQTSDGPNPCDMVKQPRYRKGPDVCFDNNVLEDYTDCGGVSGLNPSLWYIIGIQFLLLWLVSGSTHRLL
T1 sequence (P54284 whole entry partner): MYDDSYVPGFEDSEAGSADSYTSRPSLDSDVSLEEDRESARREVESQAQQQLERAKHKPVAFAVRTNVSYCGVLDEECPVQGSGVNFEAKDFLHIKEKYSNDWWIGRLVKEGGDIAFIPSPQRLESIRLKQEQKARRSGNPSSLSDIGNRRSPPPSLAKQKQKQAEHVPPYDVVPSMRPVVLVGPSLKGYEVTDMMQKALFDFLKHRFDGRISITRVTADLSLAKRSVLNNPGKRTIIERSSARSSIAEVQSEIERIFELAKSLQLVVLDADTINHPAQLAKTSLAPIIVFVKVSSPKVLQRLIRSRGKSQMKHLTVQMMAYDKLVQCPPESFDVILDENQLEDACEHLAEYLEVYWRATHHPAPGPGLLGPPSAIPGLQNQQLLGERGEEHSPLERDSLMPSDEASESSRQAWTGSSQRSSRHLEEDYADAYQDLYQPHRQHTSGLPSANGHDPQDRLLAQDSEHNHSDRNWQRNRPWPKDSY
Method in brief: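 With L-type flux blocked by 5 μM nitrendipine, N-type Ca2+ entry was read as the Indo-1 emission ratio (400/490 nm, excitation 350 nm) at 30° C after KCl depolarization.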

[2] = target: T2, L-type Ca2+ channels in A10 cells (Rattus norvegicus, UniProt P22002); experiment: Inhibition of L-type calcium flux in A10 cells (FLIPR); format: cell-based
T2 construct: which endogenously expresses L-type calcium channels; host or cells: A10 rat aortic smooth muscle cells
Method: Measurement of L-type Ca^2+ Channel Blocking Potencies of Compounds in A10 cells
Calcium flux through voltage-sensitive calcium channels was assessed by time-resolved monitoring of the fluorescence of pre-loaded calcium-sensitive dyes using FLIPR, a fluorescent image plate reader (Molecular Devices Co.). The A10 smooth muscle cell line derived from embryonic thoracic aorta of the DBIX rat (ATCC, CRL-1476) which endogenously expresses L-type calcium channels. The growth media for A10 cells was Ham's F12/DME high glucose (Irvine Scientific, 9052), supplemented with 20% fetal bovine serum (HyClone Labs, A-1115-L), and 1% each of L-glutamine and antibiotic-antimycotic (same source as above).
Cells were grown to confluency and replated on black-sided 96-well plates (Costar, 3603) for use in FLIPR. Two days after replating, growth media was removed and cells were loaded at 37° C. with 100 μL media containing 1 μM Oregon Green 488 Bapta-1 dye (Molecular Probes, O-6807) for 1 to 3 hours. The dye-containing media was then washed away with buffer (composition in mM: 1.25 CaCl2, 1.2 MgSO4, 11 glucose, 10 HEPES, 3.0 KCl, 137.0 NaCl, pH 7.4 with Tris base) in a Denley Cellwash (Labsystems, CW018B). The residual buffer volume was adjusted to 50 μL. A 5 minute drug-pre-incubation period at 35° C. was initiated when 50 μL of drug-containing buffer was pipetted into the cell plate with the 96-well pipettor integrated in the FLIPR apparatus. Fluorescent counts were monitored at 20 second intervals for 360 seconds, beginning 60 seconds prior to the delivery of drug-containing buffer. Following drug addition, 100 μL aliquots of a high K^+, depolarizing stimulus (composition in mM: 1.25 CaCl2, 1.2 MgSO4, 11 glucose, 10 HEPES, 140.0 KCl, pH 7.4 with Tris base) were added to each well and fluorescence was monitored at 1 second intervals for 120 seconds, beginning 10 seconds prior to the stimulus addition. CCD camera exposure time was 0.4 seconds, laser excitation was at 488 nm with a power of 0.2-0.5W, and a 510 to 560 nm bandpass interference filter preceded the camera.
Data was analyzed as a summation of fluorescent counts above basal during the stimulation period (an approximation of area under the curve), after normalizing the data with a spatial uniformity correction (for variations in laser illumination and cell density) and a negative control correction (zero calcium increase defined as the fluorescence reading in the presence of saturating pharmacologic block of the respective calcium channel). Drug effects were expressed as percent inhibition of fluorescence from an average of 8 K^+-stimulated wells which were pre-treated in the drug incubation period with buffer only.
In the A10 cells, the pharmacologic agent used to define zero calcium influx was nitrendipine (RBI, N-144), at a final concentration of 1.0×10^−6 M.

DBA/2 mice = experiment: animal or person; format: in vivo; settings: for responders at 30 mg/kg: Mus musculus, iv, read-out: Number of Mice Protected from Tonic Convulsions
Method: Audiogenic Seizure Model in DBA/2 Mice
In Vivo Biological Protocol
A compound of the present invention was dissolved in water using 10% (weight/volume) Emulphor (GAF Cop., Wayne N.J. surfactant. Substances were administered by intravenous injection the retro-orbital venous sinus. […] All the male mice, 3-4 weeks old were obtained from Jackson Laboratories Bar Harbour, Me. Immediately before anticonvulsant testing, mice were placed upon a wire mesh, 4 inches square suspended from a steel rod. The square was slowly inverted through 180 degree and mice observed for 30 seconds. Any mouse falling from the wire mesh was scored as ataxia.
Mice were placed into an enclosed acrylic plastic chamber (21 cm in height, approximately 30 cm diameter) with a high-frequency speaker (4 cm diameter) in the center of the top lid. An audio signal generator (Protek model B-810) was used to produce a continuous sinusoidal tone that was swept linearly in frequency between 8 kHz and 16 kHz once each 10 msec. The average sound pressure level (SPL) during stimulation was approximately 100 dB at the floor of the chamber. Mice were placed within the chamber and allowed to acclimatize for 1 minute. DBA/2 mice in the vehicle-treated group responded to the sound stimulus (applied until tonic extension occurred, or for a maximum of 60 sec) with a characteristic seizure sequence consisting of wild running followed by clonic seizures, and later by tonic extension, and finally by respiratory arrest and death in 80% or more of the mice. In vehicle-treated mice, the entire sequence of seizures to respiratory arrest lasts approximately 15-20 seconds.
The incidence of all the seizure phases in the drug-treated and vehicle-treated mice was recorded, and the occurrence of tonic seizures were used for calculating anticonvulsant ED50 values by probit analysis. Mice were used only once for testing at each time and dose point.

[3] = system: K+ channels in superior cervical ganglion (SCG) neurons; experiment: Whole-cell voltage clamp, K+ current in SCG neurons; format: cell-based, rat; settings: 10 μM
Method in brief: (§1)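 Percent inhibition of control amplitude at steady-state block is the read-out: peak inward Na+ current at 0 mV, sustained K+ current at +50 mV, 35 msec steps every 10 sec from −65 to −55 mV. Recordings used whole-cell clamp of trypsin-dissociated SCG neurons, pH 7.4 external and pipette solutions, compounds applied by local perfusion.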

[4] = system: Na+ channels in superior cervical ganglion (SCG) neurons; experiment: Whole-cell voltage clamp, Na+ current in SCG neurons; format: cell-based, rat; settings: 10 μM
Method in brief: as §1

[5] = 30 mg/Kg iv, 15 min post treatment
[6] = 30 mg/Kg iv, 45 min post treatment

CC(C)C[C@H](NC(=O)N1CCCCCC1)C(=O)N[C@@H](Cc1ccc(OCc2ccccc2)cc1)C(=O)NCCN1CCCCC1 [Example 171, [S-(R*,R*)]-Azepane-1-carboxylic acid {1-[2-(4-benzyloxy-phenyl)-1-(2-piperidin-1-yl-ethylcarbamoyl)-ethylcarbamoyl]-3-methyl-butyl}-amide]
inhibition at 1 µM [1]: 62%
pIC50 [1]: 6.34
pIC50 [2]: 6.57
responders at 30 mg/kg (DBA/2 mice; 0.75 h): 0%

CC(C)C[C@H](NC(=O)N1CCCCCC1)C(=O)N[C@@H](Cc1ccc(OCc2ccccc2)cc1)C(=O)NC(CO)CO (relative stereo) [Example 257, [S-(R*,R*)]-Azepane-1-carboxylic acid {1-[2-(4-benzyloxy-phenyl)-1-(2-hydroxy-1-hydroxymethyl-ethylcarbamoyl)-ethylcarbamoyl]-3-methyl-butyl}-amide]
Inhibition of Calcium Flux in IMR-32 Cells % Inhibition at 1 μM [1]: 42%
Inhibition of Calcium Flux in IMR-32 Cells % Inhibition at 10 μM [1]: 90%
pIC50 [1]: 5.85
Inhibition of K+ Current, % Inhibition at 10 μM [3]: 43%
Inhibition of Na+ Current, % Inhibition at 10 μM [4]: 5%
Dead mice (remark beside the protection count) (DBA/2 mice; [5]): (1 dead)
Number of Mice Protected from Tonic Convulsions (DBA/2 mice; [5]): 3/4
Dead mice (remark beside the protection count) (DBA/2 mice; [6]): 2 (dead)
Number of Mice Protected from Tonic Convulsions (DBA/2 mice; [6]): 3/3

CC(C)C[C@H](NC(=S)Nc1ccc(C(C)(C)C)cc1)C(=O)N[C@@H](Cc1ccc(OCc2ccccc2)cc1)C(=O)OC(C)(C)C (relative stereo) [Example 44, [S-(R*,R*)]-3-(4-Benzyloxy-phenyl)-2-{2-[3-(4-tert-butyl-phenyl)-thioureido]-4-methyl-pentanoylamino}-propionic acid, tert-butyl ester]
Inhibition of Calcium Flux in IMR-32 Cells % Inhibition at 1 μM [1]: 28%
Inhibition of Calcium Flux in IMR-32 Cells % Inhibition at 10 μM [1]: 71%
Number of Mice Protected from Tonic Convulsions (DBA/2 mice; [5]): 0/5

CC(C)C[C@H](NC(=O)N1CCCCCC1)C(=O)N[C@@H](Cc1ccc(OCc2ccccc2)cc1)C(=O)NC1CCN(Cc2ccccc2)C1 (stereo in doubt) [Example 183, Azepane-1-carboxylic acid {(S)-1-[(S)-2-(4-benzyloxy-phenyl)-1-[1-benzyl-(S)-pyrrolidin-3-ylcarbamoyl]-ethylcarbamoyl]-3-methyl-butyl}-amide]
pIC50 [1]: 6.52
pIC50 [2]: 6.66
responders at 30 mg/kg (DBA/2 mice; 0.25 h): 100%
Dead mice (remark beside the protection count) (DBA/2 mice; mouse, in vivo): dead

CC(C)CC(NC(=O)N1CCCCCC1)C(=O)NC(Cc1ccc(OCc2ccccc2)cc1)C(=O)NC(CO)C(C)C (centres unmarked) [Example 253, Azepane-1-carboxylic acid {1-[2-(4-benzyloxy-phenyl)-1-(1-hydroxymethyl-2-methyl-propylcarbamoyl)-ethylcarbamoyl]-3-methyl-butyl}-amide]
inhibition at 1 µM [1]: 60%
inhibition at 10 µM [1]: 93%
pIC50 [1]: 5.96
Inhibition of K+ Current, % Inhibition at 10 μM [3]: 62%
Inhibition of Na+ Current, % Inhibition at 10 μM [4]: 5%
responders at 30 mg/kg (DBA/2 mice; 0.25 h): 0%

CC(C)C[C@H](NC(=O)N1CCCCCC1)C(=O)N[C@@H](Cc1ccc(OCc2ccccc2)cc1)C(=O)NCCc1ccccn1 [Example 231]
inhibition at 1 µM [1]: 55%
inhibition at 10 µM [1]: 95%
pIC50 [1]: 5.95
pIC50 [2]: 6.17
responders at 30 mg/kg (DBA/2 mice; 0.25 h): 0%

CC(C)C[C@H](NS(=O)(=O)c1ccc(C(C)(C)C)cc1)C(=O)N[C@@H](Cc1ccc(OCc2ccccc2)cc1)C(=O)OC(C)(C)C [Example 36, [S-(R*,R*)]-3-(4-Benzyloxy-phenyl)-2(S)-[2(S)-(4-tert-butyl-benzenesulfonylamino)-4-methyl-pentanoylamino]-propionic acid tert-butyl ester]
inhibition at 1 µM [1]: 71%
inhibition at 10 µM [1]: 86%
pIC50 [1]: 6.77
pIC50 [2]: 5.52
Inhibition of K+ Current, % Inhibition at 10 μM [3]: 92%
Inhibition of Na+ Current, % Inhibition at 10 μM [4]: 91%
melting point: 142 to 143 °C

CC(C)C[C@H](NC(=O)N1CCCCCC1)C(=O)N[C@@H](Cc1ccc(CCc2ccccn2)cc1)C(=O)NC(C)(C)C [Example 147, [S-(R*,R*)]-Azepane-1-carboxylic acid (1-{1-tert-butylcarbamoyl-2-[4-(2-pyridin-2-yl-ethyl)-phenyl]-ethylcarbamoyl}-3-methyl-butyl)-amide]
inhibition at 1 µM [1]: 25%
inhibition at 10 µM [1]: 71%
pIC50 [2]: 5.29
melting point: 154 to 156 °C

CC(C)C[C@H](NC(=O)N1CCCCCC1)C(=O)N[C@@H](Cc1ccc(C=CC2(O)CCCCC2)cc1)C(=O)NC(C)(C)C [Example 143, [S-(R*,R*)]-Azepane-1-carboxylic acid [1-(1-tert-butylcarbamoyl-2-{4-[2-(1-hydroxy-cyclohexyl)-vinyl]-phenyl}-ethylcarbamoyl)-3-methyl-butyl]-amide]
inhibition at 1 µM [1]: 7%
inhibition at 10 µM [1]: 58%
pIC50 [2]: 5.89
melting point: 125 °C (dec.)

CC(C)C[C@H](NC(=O)N1CCCCCC1)C(=O)N[C@@H](Cc1ccc(Cc2ccccc2)cc1)C(=O)NC(C)(C)C [Example 53, [S-(R*,R*)]-Azepane-1-carboxylic acid {1-[2-(4-benzyl-phenyl)-1-tert-butylcarbamoyl-ethylcarbamoyl]-3-methyl-butyl}-amide]
inhibition at 1 µM [1]: 61%
inhibition at 10 µM [1]: 89%
pIC50 [2]: 6.85
melting point: 165 to 166 °C

CC(C)C[C@H](NC(=O)N1CCCCCC1)C(=O)N[C@@H](Cc1ccc(OCc2ccccc2)cc1)C(=O)N1CCSCC1 [Example 221, [S-(R*,R*)]-Azepane-1-carboxylic acid {1-[1-(4-benzyloxy-benzyl)-2-thiomorpholin-4-yl-2-oxo-ethylcarbamoyl]-3-methyl-butyl}-amide]
inhibition at 1 µM [1]: 65%
inhibition at 10 µM [1]: 93%
pIC50 [2]: 6.22
responders at 30 mg/kg (DBA/2 mice; 0.25 h): 20%
responders at 30 mg/kg (DBA/2 mice; 0.75 h): 0%

CC(C)C[C@H](NC(=O)N1CCCCCC1)C(=O)N[C@@H](Cc1ccc(CCc2ccccc2)cc1)C(=O)NC(C)(C)C [Example 144, [S-(R*,R*)]-Azepane-1-carboxylic acid {1-[1-tert-butylcarbamoyl-2-(4-phenethyl-phenyl)-ethylcarbamoyl]-3-methyl-butyl}-amide]
inhibition at 1 µM [1]: 61%
inhibition at 10 µM [1]: 86%
pIC50 [2]: 6.26
melting point: 155 to 156 °C
